In paper PMC6278385, “Preclinical Pharmacokinetics of C118P, a Novel Prodrug of Microtubules Inhibitor and Its Metabolite C118 in Mice, Rats, and Dogs” (Molecules, 2018):

Columns and labels:
[1] = Metabolic stability in liver microsomes; assay type: in vitro ADME, human
Method: The in vitro metabolic stability of C118P and C118 were estimated in mice, rat, dog, monkey, and human liver microsomes (Research Institute for Liver Diseases Co. Ltd (Shanghai, China)). The incubation mixture contains C118P or C118, NADP (1.0 mM), G-6-P (10 mM), PDH (2 units/mL), MgCl2 (10 mM), and liver microsomes (mice, rats, dogs, monkeys, or humans, 1.0 mg protein/mL) in phosphate buffer. A total of 200 μL of the mixture was removed and quenched with 600 μL acetonitrile in an ice bath at 0, 15, 30, 60, 120, and 240 min after the addition of NADPH.
CLint, in vitro (the in vitro intrinsic clearance, Equation (1)) was calculated from the t1/2 of C118 disappearance, where Cprotein is the protein concentration during the incubation, and t1/2 was determined by the slope (k) of the log-linear regression analysis of the concentration versus time profiles; thus, t1/2 = ln2/k. […] The in vivo hepatic clearance (CLH, Equation (3)) was then calculated by using CLint and hepatic blood flow, Q ([…] mL·min^−1·kg^−1 in rats, dogs, monkey, and humans, respectively), in the well-stirred liver model disregarding all binding. The hepatic extraction ratio was calculated as CLH divided by Q. CLint, in vitro = (0.693/t1/2) × (1/Cprotein)(1) CLint = CLint, in vitro × (mg protein/g liver weight) × (gliver weight/kg body weight)(2) CLH = (Q × CLint)/(Q + CLint)(3)

[2] = Tissue distribution in tumor bearing mice; assay type: in vivo, nude mice (BALB/cA) implanted with NCI-H460 tumor
Method: The nude mice (BALB/cA) implanted with NCI-H460 tumor were provided by Shanghai Institute of Materia Medica. A total of 36 mice were divided into 9 groups with four animals in each group. After fasting overnight with free access to water, the mice were treated with 75 mg/kg C118P by i.v. The blood samples were collected at 2, 10, 20, 40 min, 1, 2, 4, 8, 12 h after treatment and the mice were anaesthetized and decapitated to obtain the blood and tumor tissue. Blood, brain, muscle, ovary, and lung from mice in the PK study were collected at 10 min, 1, 4, and 12 h. Tissues were cleaned by absorbent filter paper to remove the blood. Bloods were centrifuged at 10,000× g for 5 min. Each tissue (0.2 g) was homogenized with 2 mL water. The plasma samples and the homogenates were then processed and determined by the method described above. The concentration was determined by the calibration curve and the actual concentration was corrected by multiplying by 10 according to the dilution times. […]
4. The distribution of CA4P and CA4 in tumor bearing mice.
The nude mice (BALB/cA) implanted with NCI-H460 tumor were provided by Shanghai institute of Materia Medica. A total of 36 mice were divided into 9 groups with 4 animals in each group.
After fasted overnight with free access to water, the mice were treated with 75 mg/kg CA4P by i.v.
The blood samples were collected at 2, 10, 20, 40 min, 1, 2, 4, 8, 12 h after treatment and the mice were anaesthetized and decapitated to obtain the blood and tumor tissue. All procedure are same as C118P in the main text. The concentration was determined by the calibration curve and the actual concentration was corrected by multiplying by 10 according to the dilution times.

[3] = Tandem two-compartment PK model of C118P and C118; assay type: in vivo; conditions: dog; for K12 / K21 / V1: two-compartmental model parameter (Table S1); for K10: two-compartmental model, K10 supposed to be transformation rate of C118P into C118, simulated
Description: Due to the rapid transformation of C118P into C118, there is no direct way to calculate the rate of transformation, thus a two-compartment model with metabolism involved was developed (Figure S3). The transformation rate from C118P into C118 was simulated by fitting the two-serial data of prodrug C118P and C118 in rats and dogs.
3. The pharmacokinetic profile of C118P and C118 was simulated by two compartmental models. To simplify the model, the excretion rate of C118P from central compartment was supposed to be zero. In this model, both C118P and C118 were described by two-compartmental model, with elimination rate of k(0,3) for C118. The connection between C118P and C118 is by the uniflow of transformation rate of k(3,1) since the metabolism of C118P to C118 is irreversible(Figure S3).
Figure S3. The pharmacokinetic model of C118P and C118 in rat after i.v C118P. ex1: the injection dose of C118P, s1: concentration of C118 in central compartment. s2: concentration of C118 in central compartment, q1 and q3 represent the central compartment of C118P and C118, respectively.
The q2 and q4 represent the peripheral compartment of C118P and C118, respectively. k(0,3) represents the elimination rate of C118 from central compartment. k(3,1) represents the transformation rate of C118P to C118. k(2,1) and k(4,3) represent the distribution rate of C118P and C118 from central compartment to peripheral compartment. k(1,2) and k(3,4) represent the return rate of C118P and C118 from peripheral compartment to central compartment.
For prodrug pharmacokinetic prediction, the transformation of prodrug to the active drug should be studied in different system to get the right data. With the help of modeling, the transformation ratio of C118P to C118 was calculated by a tandem two-compartment model (SAAMII, University of Washington). In simulation study, the initial parameters are very important for accurate prediction.
The initial compartmental model parameters of rat and dog were first evaluated by Winnonlin using two-compartmental model at low dose, with intravenous for C118P and extra vessel for C118 since […]
(1 picture or pasted object on this page, not shown here)
C118 was transformed from C118P. The initial parameters used in the simulation were listed in Table S1. Using these parameters, the simulation of PK profiles of rat and dog are well fit to the data from in vivo at higher dose (Figure S4). The simulation of C118P and C118, the transformation rate of C118P to C118 is calculated and transformation ratio (k) is about 18.3671/h and12.588 1/h for rats and dogs, respectively.
Figure S4. The simulation of PK profile at 20 mg/kg in rat(A) and 6 mg/kg(B) in dog based on initial parameters calculated by Winnonlin. (s1 represent the simulated data for C118 and s2 represent the simulated data for C118P, plasma 1 represent the experimental data for C118 and plasma 2 represent the experimental data for C118P.) […]

[4] = 0.17 h after i.v. 75 mg/kg of C118P, n = 4
[5] = 1 h after i.v. 75 mg/kg of C118P, n = 4
[6] = 4 h after i.v. 75 mg/kg of C118P, n = 4
[7] = 12 h after i.v. 75 mg/kg of C118P, n = 4
[8] = 0.17 h after i.v. 75 mg/kg of C118P, n = 4, in ng/g

COc1cc(OC)cc(-c2nc[nH]c2-c2ccc(OC)c(OP(=O)([O-])[O-])c2)c1.[Na+].[Na+] [C118P]
stability in liver microsomes ([1]; human liver microsomes (Figure S1)): quite stable
concentration in Lung [2, 4]: 130.2 ± 7.5
concentration in Plasma [2, 4]: 5199.4 ± 2147.9
concentration in Tumor [2, 4]: 115.8 ± 24.1
concentration in muscle [2, 4]: 355.4 ± 64.1
concentration in Plasma [2, 5]: 191.2 ± 60.5
concentration in Tumor [2, 5]: 73.0 ± 15.0
concentration in Plasma [2, 6]: 14.7 ± 8.4
concentration in Tumor [2, 6]: 26.7 ± 0.0
concentration in Plasma [2, 7]: 6.1 ± 0.0
K12 [3]: 1.844 h⁻¹
K21 [3]: 4.727 h⁻¹
V1 [3]: 0.05097 L/kg
K10 [3]: 12.558 h⁻¹

COc1cc(OC)cc(-c2nc[nH]c2-c2ccc(OC)c(O)c2)c1 [C118]
CLint, in vitro ([1]; human liver microsomes): 58.2 μL·min^−1·mg^−1 Protein
half-life ([1]; human liver microsomes, 1.0 mg protein/mL, C118 disappearance): 11.9 min
CLint ([1]; human, scaled from CLint, in vitro): 47.9 mL/min/kg
Extrapolated CLH ([1]; human, well-stirred liver model): 14.1 mL/min/kg
concentration in muscle [2, 4]: 15,202.5 ± 8814.7
concentration in ovary [2, 4]: 26,723.8 ± 18,229.6
concentration in Lung [2, 8]: 26,923.2 ± 4389.0
concentration in Tumor [2, 8]: 14,563.3 ± 1989.9
concentration in brain [2, 8]: 3562.8 ± 796.6
concentration in Plasma ([2]; 0.17 h after i.v. 75 mg/kg of C118P, n = 4, in ng/mL): 26,048.0 ± 2429.7
concentration in Lung [2, 5]: 1852.3 ± 929.3
concentration in Plasma [2, 5]: 1730.0 ± 986.4
concentration in Tumor [2, 5]: 12,998.1 ± 4132.3
concentration in brain [2, 5]: 1250.7 ± 351.3
concentration in muscle [2, 5]: 946.8 ± 390.6
concentration in ovary [2, 5]: 3308.6 ± 2611.1
concentration in Lung [2, 6]: 231.3 ± 181.7
concentration in Plasma [2, 6]: 132.6 ± 56.8
concentration in Tumor [2, 6]: 4969.8 ± 3414.7
concentration in brain [2, 6]: 109.1 ± 22.0
concentration in muscle [2, 6]: 136.4 ± 2.8
concentration in Tumor [2, 7]: 1327.7 ± 1124.0
K12 [3]: 1.3247 h⁻¹
K21 [3]: 0.2110 h⁻¹
V1 [3]: 0.2205 L/kg
K10 [3]: 3.1444 h⁻¹
